# Columns and labels:
# [1] = microbe, parasite or virus in culture; settings: Mycobacterium tuberculosis, 96 h, read-out: pIC50 (converted)
# [2] = microbe, parasite or virus in culture; settings: Mycobacterium tuberculosis, 72 h, read-out: pIC50 (converted)
Structure (SMILES),IC50 [1] [µM],IC50 [2] [µM]
O=C(NCC(F)(F)F)C1CN(C(=O)c2cnccn2)C1,> 50.1,> 50.1
O=C(CC1COc2ccccc2O1)N1CCOCC1 (stereo not given),64,74.9
O=C(c1cnsn1)N1CC=C(c2ccccc2)CC1,237,35.1
COCCNc1ccc(OC)c(OC)c1,> 501,257
CCC(CO)Nc1ncc(C(F)(F)F)cc1Cl (stereo not given),> 501,> 501
Cc1noc(-c2c[nH]nc2C2CCCN2C(=O)c2ccccc2)c1C (stereo not given),> 50.1,> 50.1
CN1N=C(C(=O)NCc2csc(Br)c2)CCC1=O,51,147
COCC(C)NC(=O)CNc1ccc(OC)c(Br)c1 (stereo not given),184,172
CCCc1ccc(N2CCN(Cc3nc4ccccc4n3C)CC2)cc1,> 50.1,26
Cc1ccccc1N1CCN(c2cc(N(C)C)ncn2)C(C)C1 (stereo not given),> 50.1,> 50.1
CCNC(=O)NCCOC(=O)c1cccc2cc[nH]c12,> 501,> 501
CC(C)(C)OC(=O)NC1CC2(CNC2)C1,> 501,244
CSCc1cc(F)ccc1CNC(=O)c1cn[nH]c1C,> 501,> 501
CCCN1CCC(Nc2cc(-c3ccccc3)ccc2OC)CC1,32.9,23.4
O=S(=O)(CCNc1cncc(Cl)n1)N1CCSCC1,215,252
Cn1cc(Br)cc1C(=O)NCC1CCCO1 (stereo not given),> 501,225
C[C@@]1(O)CCN(C(=O)CN)C[C@@H]1Cc1ccccc1,174,219
NC(=O)C1CCN(C(=O)CCc2ccc(Cl)cc2Cl)C1 (stereo not given),284,157
O=C(c1cn(-c2ccccc2)nn1)N1CCOCC(O)C1 (stereo not given),> 50.1,> 50.1
COCCC(C)NC(=O)Nc1ccc(N2CCOC2=O)c(OC)c1 (stereo not given),> 50.1,> 50.1
OCC1CN(c2ncc(Cl)cc2F)CCO1 (stereo not given),180,115
NCC(=O)N1CCCC(COc2ccc(F)cc2)C1 (stereo not given),> 501,220
NC(=O)COc1cc(Cl)cc(Cl)c1,278,246
C=C(C)Cn1c(S(C)(=O)=O)nc2ccccc21,> 501,135
CC(C)C1CN(C(=O)CCc2ccccn2)CCS1 (stereo not given),95.5,79.8
CCOCC(=O)NC(C)Cc1ccccc1Br (stereo not given),0.742,0.928
CC(CO)Sc1ccc(S(=O)(=O)C(F)F)cc1 (stereo not given),158,459

Structure (SMILES),IC50 [1] [µM],IC50 [2] [µM]
N#Cc1cccnc1N1CCCNCC1,> 501,480
CNc1nc(C)cc(NCc2cc(C)cc3c(C)c(C)[nH]c23)n1,44.8,28
CCOc1ccc(C(C)=O)cc1CN1CCCC1,111,59.8
CCCNc1cc(-n2cccn2)ncn1,280,58.4
N#CCOC(=O)c1ccc2c(c1)OCCCO2,182,> 501
CN(C)CCN(C)c1ccc(-c2nc(COc3ccccc3)no2)cn1,14.4,48.4
CCCc1cc(C(=O)NCCCC(=O)N2Cc3ccccc3C2)[nH]n1,> 50.1,> 50.1
CCC1c2ccsc2CCN1C(=O)c1ccc(CN)o1 (stereo not given),370,167
CN(CCn1cccn1)c1cc(Br)ccn1,366,190
COCCNC(=O)c1cc2cc(C)ccc2n1C,> 501,173
CC(C)Oc1ccc(CNC(=O)N2CCCC2)cn1,118,126
COc1ccc(CNCCc2ccn(-c3ccccc3)n2)cc1O,> 50.1,> 50.1
NS(=O)(=O)c1ccc(F)c(C(=O)Nc2ccccc2)c1,> 501,262
CC(NCc1ccc(OCC(N)=O)cc1)c1ccc(Cl)cc1Cl (stereo not given),18.8,49
COCCNC(=O)c1cc(-c2cccc(O)c2)on1,157,231
Cc1nn(CCN(C)c2ccccc2)c(N)c1C#N,> 501,265
NCCc1cnn(-c2ccccc2)c1,250,230
COc1ccc(CN(C)C(=O)C2CC2)cc1F,255,211
FC(F)(F)c1ccc(-c2cnc(C3CCCN3)cn2)cc1 (stereo not given),2.02,13.9
O=C(CCN1CCN(c2ccccn2)CC1)NC1CC1,> 501,> 501
Cn1nc(C(F)(F)F)c(Cl)c1C(=O)N[C@@H]1CCNC1,> 501,168
CCN1CCN(Cc2cc(C(C)=O)ccc2OC)CC1,> 501,367
CC(Nc1ccc(F)cc1)C(=O)N1CCCC1 (stereo not given),68.6,106
CN(Cc1ccsc1)Cc1ccc(S(=O)(=O)N(C)C)o1,86.4,> 501
CCC(C)(C)NC(=O)c1ccn(-c2ccccc2F)n1,350,361
Nc1nc(CCCNC(=O)Cc2ccsc2)cs1,> 501,> 501
CC(C)C(C)N(C)Cc1nnc(-c2ccco2)o1 (stereo not given),> 50.1,1.38

Structure (SMILES),IC50 [1] [µM],IC50 [2] [µM]
O=C1[C@H]2CN(C3CCOC3)C[C@H]2CN1c1ccccc1 (stereo not given in full),> 50.1,> 50.1
CCN(CC)CCS(=O)(=O)c1ccccc1,> 501,300
CCCn1nnc(NC(=O)COc2ccc(Cl)cc2)n1,272,237
Brc1ccc2c(c1)OCCNC2,> 501,> 501
C=C(Br)Cn1c(CO)nc2ccccc21,> 501,> 501
CC1CCN(C(CN)c2cccs2)CC1 (stereo not given),263,217
CCOCCSc1nnc(Cc2ccccc2F)o1,27.5,33.5
c1ccc(OCCCOC2CNC2)cc1,> 501,177
COC(=O)c1ccc(-c2noc(CN(CCO)Cc3cccs3)n2)cc1,> 50.1,47.5
CCCC(C#N)NC(=O)c1ccn(-c2ccccc2)n1 (stereo not given),> 501,294
COC(=O)CN(C)Cc1cc(Br)cs1,> 50.1,> 50.1
Cc1ccsc1[C@@H]1CCN(C(=O)CCOc2ccccc2)C[C@H]1O,> 50.1,> 50.1
Cc1ccc(C(C)C)c(OCC(O)CNCCO)c1 (stereo not given),127,158
NCC(O)c1ccc(Cl)s1 (stereo not given),290,241
NCCOc1ccc2ccccc2n1,> 501,244
CN1CCN(C(=O)Cn2ccc3ccc(Br)cc32)CC1,173,132
CN(C)S(=O)(=O)N1CCCC1c1ccccc1Br (stereo not given),273,206
NCCc1ccc(N2CCOCC2)c(F)c1,263,154
COC(=O)CCCC(=O)N1CCCc2ccccc2C1,> 501,180
COc1c(CNCCS(C)(=O)=O)c(C(C)C)nn1C,> 501,> 501
CCCn1cnnc1-c1nc2c([nH]1)CC(c1ccc(Cl)cc1)CNC2=O (stereo not given),14.2,17.5
CC(C)(O)CSc1nnc(NCc2ccco2)s1,55.2,118
Cc1nc(CN2CCC(CNC(=O)NCCC3CCC3)CC2)oc1C,0.791,1.06
N[C@@H]1C[C@H]1c1c(F)cccc1F,> 501,> 501
NCCn1cc(C(=O)NCCSC2CCCCC2)nn1,129,178
NC1CCN(c2ncc(C(F)(F)F)cc2Cl)C1 (stereo not given),83.4,123
O=C(OCCNc1ncccn1)c1ccc(Br)s1,29.8,> 50.1

Structure (SMILES),IC50 [1] [µM],IC50 [2] [µM]
CS(=O)(=O)NCC(=O)Nc1ccc(-n2cccn2)cc1,> 501,> 501
Cc1cc(C(=O)NCc2csc(N(C)C)n2)c2ccc(C)c(C)c2n1,13.6,19
OC1CCN(Cc2ccc3c(c2)CCC3)C1 (stereo not given),> 501,213
CCN1C[C@@H]2[C@@H](OC)CCN(C(=O)Cc3ccsc3)[C@@H]2C1,> 50.1,> 50.1
Cn1c(CO)nnc1SCC=Cc1ccccc1,289,240
COc1ccc(OC)c(NC(=O)c2ccccn2)c1,156,173
CCOc1ncccc1CNC(=O)c1[nH]ncc1Br,> 501,> 501
CCCC(=O)Nc1cc(C(=O)OC)cc(C(=O)OC)c1,> 501,249
OCCCC(Nc1ccccn1)c1ccccc1 (stereo not given),111,109
O=C1CCN(CCOc2cc(F)cc(Br)c2)CCN1,279,198
Cc1noc(NC(=O)c2ccc(C(F)(F)F)nc2C)n1,151,164
O=C(c1cc(C2CC2)on1)N1CCC2(CCOCC2)C1,25.4,20.5
O=C(c1cc[nH]n1)N1CCCC(c2cccc(-n3ccnc3)n2)C1 (stereo not given),> 50.1,> 50.1
CCCN(CCn1c(=O)oc2ccccc21)CC1CC1,> 50.1,> 50.1
CCCn1nccc1C(=O)Nc1nc(C)c(C)s1,47.4,> 50.1
Cc1ccccc1-c1[nH][nH]c(=O)c1CCN,> 501,230
CCC1CN(C(=O)c2ccc3ccccc3n2)CCO1 (stereo not given),> 501,97.4
COC1CCN(C(=O)Cc2ccc(N(C)C)cc2)C1 (stereo not given),122,183
CC(C)CNC(=O)c1cc2c(s1)CCN2Cc1cccnc1,> 50.1,> 50.1
CC(=O)c1c(F)cccc1N1CCOCC1,> 501,> 501
CC(C)[C@@H]1CN(C(=O)NCc2ccco2)C[C@H]1N(C)C,> 50.1,> 50.1
CN(C)c1ncccc1CNS(=O)(=O)c1ccccc1,> 501,> 501
CN(C)C(=O)CSc1nnc(C(F)(F)F)s1,305,487
CCc1ccccc1NC(=O)NCc1nnc(SC)n1C,> 50.1,> 50.1
